Patent US10765114B2, “4-amino-6-(pyridyl and 2-substitutedphenyl)-picolinates and 6-amino-2-(pyridyl and 2-substitutedphenyl)-pyrimidine-4-carboxylates and their use as herbicides” (Dow AgroSciences LLC, priority 2013, dated 2020)
Like-named read-outs stand apart in the source and are kept apart here.

Tests used:
[1] = tested on: Key Broadleaf Weed and Crop Species; assay: Post-Emergent Test II (Table 5); format: in vivo; details: post-emergence, 336 h; for pest or weed control at 70 g/ha: application rate 70 (kg ai/ha; footnote: g ai/ha); for pest or weed control at 140 g/ha: application rate 140 (kg ai/ha; footnote: g ai/ha)
In short: (§1)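 Seedlings are raised 7-21 days in Metro-Mix 360 (pH 6.0-6.8) under greenhouse conditions, then sprayed at the first or second true leaf stage. Application is 187 L/ha, with serial rates down to 1/16× of the highest. Plants are subirrigated, and percent injury is rated visually after 14 days.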

[2] = tested on: Key Grass and Sedge Weeds as well as Grass Crops; assay: Post-Emergent Test II (Table 6); format: in vivo; details: post-emergence, 336 h, 14 days after application; for pest or weed control at 70 g/ha: 70 g ai/ha; for pest or weed control at 140 g/ha: 140 g ai/ha
In short: as §1

[3] = Euphorbia heterophylla, EPHHL: wild poinsettia (Euphorbia heterophylla), read-out: Visual Growth Reduction (%) 14 Days After Application EPHHL
[4] = Viola tricolor, VIOTR: wild pansy (Viola tricolor), read-out: Visual Growth Reduction (%) 14 Days After Application VIOTR
[5] = CYPSS, read-out: Visual Growth Reduction (%) 14 Days After Application CYPSS
[6] = DIGSA: crabgrass (Digitaria sanguinalis), read-out: Visual Growth Reduction (%) 14 Days After Application DIGSA
[7] = ECHSS, read-out: Visual Growth Reduction (%) 14 Days After Application ECHSS
[8] = ORYSS (crop), read-out: Visual Growth Reduction (%) 14 Days After Application ORYSS
[9] = SETFA: giant foxtail (Setaria faberi), read-out: Visual Growth Reduction (%) 14 Days After Application SETFA
[10] = SORVU: grain sorghum (Sorghum vulgare), read-out: Visual Growth Reduction (%) 14 Days After Application SORVU
[11] = TRZSS (crop), read-out: Visual Growth Reduction (%) 14 Days After Application TRZSS
[12] = ZEAMX: maize, corn (Zea mays), read-out: Visual Growth Reduction (%) 14 Days After Application ZEAMX

For COC(=O)c1nc(-c2ccc(C(F)(F)F)nc2)nc(N)c1Cl [Compound 82, methyl 6-amino-5-chloro-2-(6-(trifluoromethyl)pyridin-3-yl)pyrimidine-4-carboxylate], the pest or weed control at 70 g/ha [1, 3] was 0 to 29%, the pest or weed control at 140 g/ha [1, 3] was 0 to 29% and the pest or weed control at 70 g/ha [1, 4] was 0 to 29%. For the same molecule, the pest or weed control at 140 g/ha [1, 4] was 0 to 29%, the pest or weed control at 70 g/ha [2, 5] was 0 to 29% and the pest or weed control at 140 g/ha [2, 5] was 0 to 29%. It also gave a pest or weed control at 70 g/ha [2, 6] of 0 to 29%, a pest or weed control at 140 g/ha [2, 6] of 0 to 29% and a pest or weed control at 70 g/ha [2, 7] of 0 to 29%. For the same molecule, the pest or weed control at 140 g/ha [2, 7] was 0 to 29%, the pest or weed control at 70 g/ha [2, 8] was 0 to 29% and the pest or weed control at 140 g/ha [2, 8] was 0 to 29%. It also gave a pest or weed control at 70 g/ha [2, 9] of 0 to 29%, a pest or weed control at 140 g/ha [2, 9] of 0 to 29% and a pest or weed control at 70 g/ha [2, 10] of 0 to 29%. The pest or weed control at 140 g/ha [2, 10] was 0 to 29%, the pest or weed control at 70 g/ha [2, 11] was 0 to 29% and the pest or weed control at 140 g/ha [2, 11] was 0 to 29%. The pest or weed control at 70 g/ha [2, 12] was 0 to 29%, the pest or weed control at 140 g/ha [2, 12] was 0 to 29% and the melting point was 179 to 181 °C.
